The values that follow are results of earlier work, collected in patent US11980186B2, “Preparation method of eucalyptol emulsion and application thereof in biopesticides” (Jiangnan University, priority 2021, dated 2024).

Values after ≈ are worked out from the molar mass of the structure shown.

The test system of the data set is B. tabaci. Conditions: literature value.

Take `O=C1CCC[C@@H]2[C@H]3CCCN4CCC[C@@H](CN12)[C@@H]34` [matrine]: the “LC50 against the B. tabaci” value was 13.35 µg/mL (≈ 53.8 µM).
